The nature of assay [1]: Vero cell cytotoxicity, dose response, cytotoxicity control for Vif-APOBEC3G degradation inhibitor project, Vero cells (AID 1117358). The format is functional. Conditions: Human immunodeficiency virus 1, Vero.
The next assay addresses T1, NADPH oxidase 1 (Homo sapiens, UniProt Q9Y5S8).
T1 sequence (Q9Y5S8 whole entry): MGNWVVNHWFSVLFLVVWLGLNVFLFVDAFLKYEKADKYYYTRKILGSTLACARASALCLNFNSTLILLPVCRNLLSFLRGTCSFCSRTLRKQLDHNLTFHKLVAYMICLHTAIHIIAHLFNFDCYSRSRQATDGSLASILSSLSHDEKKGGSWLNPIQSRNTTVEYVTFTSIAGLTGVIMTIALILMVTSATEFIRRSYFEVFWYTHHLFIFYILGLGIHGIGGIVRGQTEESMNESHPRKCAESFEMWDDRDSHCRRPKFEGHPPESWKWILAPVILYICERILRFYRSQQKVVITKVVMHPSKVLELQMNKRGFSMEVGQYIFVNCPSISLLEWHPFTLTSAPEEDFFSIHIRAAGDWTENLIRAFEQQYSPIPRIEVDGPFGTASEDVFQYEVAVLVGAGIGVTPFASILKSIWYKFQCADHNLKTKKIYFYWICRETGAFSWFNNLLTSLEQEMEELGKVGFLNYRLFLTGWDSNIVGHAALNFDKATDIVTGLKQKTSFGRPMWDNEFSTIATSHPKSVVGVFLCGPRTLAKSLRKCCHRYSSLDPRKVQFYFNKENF
The experiment in a line: Late stage results from the probe development effort to identify inhibitors of NOX1: HEK/293 IC50. [Related pubchem assays: 1796 (Summary AID (NOX1)), 2752 (Primary screen (NOX1 inhibitors, synthesized analogs set 2)), 2664 (Primary screen (NOX1 inhibitors, synthesized analogs)), 1792 (Primary Screen (NOX1)), 2545 (Confirmation screen (NOX1 …. The format is functional.

Assay [2] deals with T2, Corticotropin-releasing factor receptor 2/Corticotropin-releasing factor-binding protein (Homo sapiens, UniProt P24387+Q13324).
T2 sequence (Q13324 whole entry): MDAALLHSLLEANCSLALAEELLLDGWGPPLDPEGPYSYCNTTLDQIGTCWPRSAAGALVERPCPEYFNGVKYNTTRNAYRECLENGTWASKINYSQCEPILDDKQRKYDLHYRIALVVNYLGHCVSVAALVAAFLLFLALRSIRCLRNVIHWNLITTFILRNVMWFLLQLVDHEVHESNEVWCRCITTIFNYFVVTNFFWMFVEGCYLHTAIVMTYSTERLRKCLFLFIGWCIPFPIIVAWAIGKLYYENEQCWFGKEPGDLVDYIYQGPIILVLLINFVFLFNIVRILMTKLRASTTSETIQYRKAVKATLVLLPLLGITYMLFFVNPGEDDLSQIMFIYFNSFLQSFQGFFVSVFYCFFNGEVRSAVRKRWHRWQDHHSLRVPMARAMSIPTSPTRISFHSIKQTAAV
T2 sequence (P24387 whole entry): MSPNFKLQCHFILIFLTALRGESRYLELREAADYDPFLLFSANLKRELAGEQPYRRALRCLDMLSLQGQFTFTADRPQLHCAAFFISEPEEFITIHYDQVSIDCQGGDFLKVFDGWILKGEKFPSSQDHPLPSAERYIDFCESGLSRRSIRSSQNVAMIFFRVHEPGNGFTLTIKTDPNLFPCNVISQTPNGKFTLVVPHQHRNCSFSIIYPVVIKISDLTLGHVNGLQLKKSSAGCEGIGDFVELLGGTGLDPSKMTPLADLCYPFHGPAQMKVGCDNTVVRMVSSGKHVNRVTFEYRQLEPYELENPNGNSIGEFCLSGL
The experiment in a line: activators of CRF receptor 2 with binding protein – uHTS hits, confirmation (AID 602473). The conditions noted are these: read-out: EC50_Mean. The format is functional.

A further assay deals with H4. The experiment in a line: Luminescence Cell-Based Dose Response HTS to Identify Activators of 5'UTR Stem-Loop Driven Prion Protein mRNA Translation in H4 Neuroglioblastoma Cells. [Related pubchem assays: 1829 (Project Summary), 1814 (Primary HTS)]. The format is functional. The conditions noted are these: Homo sapiens.
Assay [3] is described as follows: Luminescence Cell-Based Dose Response HTS to Identify Activators of Luciferase Translation or Activity in H4 […] Cells. [Related pubchem assays: 1829 (Project Summary), 1814 (Primary HTS)]. The format is functional.
Assay [4] deals with Heat shock protein HSP 90-alpha (Homo sapiens, UniProt P07900). The experiment in a line: Luminescence-based dose response biochemical high throughput screening assay for inhibitors of the Heat Shock Protein 90 (HSP90). [Related pubchem assays: 1831 (Summary AID.), 1846 (Confirmation screen.), 1789 (Primary screen.)].
The target of assay [5] is T3, RNA-binding protein pos-1 (Caenorhabditis elegans, UniProt G5EF15).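 Note: purified POS-1 fused to maltose binding protein made in E. coli; potency of compounds blocking POS-1 binding to fluorescent RNA.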
T3 sequence (G5EF15 whole entry): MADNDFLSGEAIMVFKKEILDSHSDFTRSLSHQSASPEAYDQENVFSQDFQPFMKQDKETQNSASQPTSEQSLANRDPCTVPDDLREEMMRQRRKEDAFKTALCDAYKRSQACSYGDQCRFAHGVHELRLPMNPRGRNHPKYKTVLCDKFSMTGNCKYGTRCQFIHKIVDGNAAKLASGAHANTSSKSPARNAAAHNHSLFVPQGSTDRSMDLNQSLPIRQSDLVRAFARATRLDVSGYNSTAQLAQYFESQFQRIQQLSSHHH
The experiment in a line: inhibitors of POS-1/mex-3 RNA binding, dose response, biochemical, fluorescence polarization (AID 1964). (In general: In fluorescence polarisation assays a small probe gives low polarisation when free and higher when bound to something large.)

Assay [6] addresses T4, Zinc finger protein mex-5 (Caenorhabditis elegans, UniProt Q9XUB2).
T4 sequence (Q9XUB2 whole entry): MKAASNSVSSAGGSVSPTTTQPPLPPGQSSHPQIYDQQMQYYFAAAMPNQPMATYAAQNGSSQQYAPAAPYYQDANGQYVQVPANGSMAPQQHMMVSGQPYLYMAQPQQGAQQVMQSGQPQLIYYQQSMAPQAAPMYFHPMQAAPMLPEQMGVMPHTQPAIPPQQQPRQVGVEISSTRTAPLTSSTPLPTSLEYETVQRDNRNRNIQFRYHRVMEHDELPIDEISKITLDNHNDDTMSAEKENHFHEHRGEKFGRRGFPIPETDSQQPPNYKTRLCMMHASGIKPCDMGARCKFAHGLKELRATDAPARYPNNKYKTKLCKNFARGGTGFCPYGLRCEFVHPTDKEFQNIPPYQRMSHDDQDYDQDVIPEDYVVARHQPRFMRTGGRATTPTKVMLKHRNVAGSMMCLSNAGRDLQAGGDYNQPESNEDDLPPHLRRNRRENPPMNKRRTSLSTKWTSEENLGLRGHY
Description: MEX-5/TCR-2 RNA interaction inhibitors, dose response, biochemical, C. elegans, fluorescence polarization (AID 1960).

Assay [7] in a line: Luminescence Cell-Based Dose Confirmation HTS to Identify Activators of 5'UTR Stem-Loop Driven Alpha-Synuclein mRNA Translation in H4 Neuroglioblastoma Cells. [Related pubchem assays: 1829 (Project Summary), 1814 (Primary HTS)]. The format is functional.
The subject of assay [8] is HEK293. The experiment in a line: TNF Induced NF-kB Luciferase in 293-NF-kB-Luc Stable Cells. [Related pubchem assays: 1266, 1299, 1269, 1373, 1292, 1290, 1302, 1371, 1283, 1270, 1295, 1271, 1375, 1294, 1374, 1281, 1293, 1291, 1289, 1280, 465, 1368, 1364, 1282, 1372, 1365, 1369, 1370, 1367, 1366 ]. The format is functional, cell-based. Conditions: Homo sapiens.
Assay [9] concerns HEK293. Description: Cytotoxicity assay in HEK293 cells. [Related pubchem assays (depositor defined):AID1266, AID1269, AID1270, AID1271, AID1280, AID1281, AID1282, AID1283, AID1287, AID1289, AID1290, AID1291, AID1292, AID1293, AID1294, AID1295, AID1299, AID1302, AID1364, AID1365, AID1366, AID1367, AID1369, AID1370, AID1371, AID1372, AID1373, AID1374, AID1375, AID1384 …. The format is functional, cell-based. The conditions noted are these: Homo sapiens.

Assay [10] concerns the target Luciferin 4-monooxygenase (Photinus pyralis, UniProt P08659). The experiment in a line: In vitro luciferase assay using purified luciferase. [Related pubchem assays: 1299, 1270, 1295, 1375, 1287, 1281, 1293, 1291, 1289, 1280, 465, 1364, 1282, 1372, 1365, 1370, 1367, 1366, 1266, 1373, 1292, 1290, 1302, 1371, 1283, 1271, 1294, 1374, 1368, 1369 ].
In assay [11] the test system is HEK293. Description: PMA/Ionomycin induced NF-kB luciferase assay in 293- NF-kB-Luc stable cells. [Related pubchem assays: 1299, 1270, 1295, 1375, 1287, 1281, 1293, 1291, 1289, 1280, 465, 1364, 1282, 1372, 1365, 1370, 1367, 1366, 1269, 1373, 1292, 1290, 1302, 1371, 1283, 1271, 1294, 1374, 1368, 1369 ]. The conditions noted are these: Homo sapiens. The format is functional, cell-based.

The source made the active and inactive calls.

Sequence of Luciferin 4-monooxygenase (P08659 whole entry): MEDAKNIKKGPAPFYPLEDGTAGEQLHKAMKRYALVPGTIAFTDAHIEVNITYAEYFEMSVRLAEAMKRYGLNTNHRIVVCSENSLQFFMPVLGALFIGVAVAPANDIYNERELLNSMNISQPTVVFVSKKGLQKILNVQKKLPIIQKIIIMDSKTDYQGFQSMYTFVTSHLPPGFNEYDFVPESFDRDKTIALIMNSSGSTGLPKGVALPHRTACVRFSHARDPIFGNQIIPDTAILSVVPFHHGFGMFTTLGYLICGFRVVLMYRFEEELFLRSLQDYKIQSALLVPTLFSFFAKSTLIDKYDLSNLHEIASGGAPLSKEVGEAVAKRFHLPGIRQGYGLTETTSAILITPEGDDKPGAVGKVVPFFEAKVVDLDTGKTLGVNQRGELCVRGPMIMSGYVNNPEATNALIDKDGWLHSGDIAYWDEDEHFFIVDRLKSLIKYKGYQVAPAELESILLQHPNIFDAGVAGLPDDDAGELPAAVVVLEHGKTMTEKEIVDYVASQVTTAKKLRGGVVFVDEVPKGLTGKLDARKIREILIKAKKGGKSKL

For `COc1cc2c(cc1NC(=O)CC1SC(N3CCCC3)=NC1=O)oc1ccccc12` (stereo not drawn), the CC50 – broadly, the concentration that lowers cell viability or growth by half – in [1] was > 40 µM (active).

For `c1ccc2c(c1)Nc1nc3ccccc3nc1N2`, on NADPH oxidase 1, the IC50 (usually the concentration that inhibits the measured activity by half) was 0.36 µM (active).

Turning to `Cc1ccc2oc(=O)c(/C=C(\O)c3cccs3)nc2c1`, the EC50 was 4.87 µM (active) in assay [2]; 16.5 µM (active) in the assay with H4; 13.1 µM (active) in assay [3]; 21.3 µM (inconclusive) in assay [5]; 6.82 µM (inconclusive) in [6]; 16.6 µM (active) in [7]. Further, the IC50 in assay [4] was 5.05 µM (active).

Consider `Cc1ccc2[nH]c(=O)c(C(=O)/C=C/c3ccccc3Cl)c(-c3ccccc3)c2c1`, for which the EC50 in the assay with HEK293 [8] was 2.6 µM (active); in the assay on HEK293 [9] it was 5.72 µM (inactive); in assay [10], > 8 µM (not active); in the assay on HEK293 [11], 1.17 µM (active).

The values are drawn from ChEMBL document CHEMBL1201862, “PubChem BioAssay data set” (2004).
